The results in this text go back to patent US6664214B1, “Uracil compounds and use thereof” (Sumitomo Chemical Company, Limited, priority 1999, dated 2003).

Common to all, as to set-up: key: 0: little difference in the degree of germination or growth between the treated plants and the untreated plants at the time of examination; 10: the treated plants died completely or their germination or growth was completely inhibited
In assay [1] the test system is ivyleaf morningglory. The experiment in a line: Test Example 3: foliar treatment on upland field (Table 4). It is filed as in vivo, Ipomoea hederacea. As to conditions: examined 16 days after application, index 0-10. The procedure: (§1) In the examples, the compounds are identified by the Compound Numbers as in Tables 1 to 3. […] A cylindrical plastic pot having a diameter of 10 cm and a depth of 10 cm was filled with soil and seeded with ivyleaf momingglory, velvetleaf and barnyardgrass. These test plants were grown in a greenhouse for 10 days. Then each of compounds listed below was formulated into an emulsifiable concentrate according to Formulation Example 2 and then diluted to the prescribed amount with water containing a spreading agent and the dilution was uniformly sprayed over the foliage of the test plants with sprayer at a rate of 1000 liters per hectare. After the application, the test plants were grown in the greenhouse for 16 days, and the herbicidal activity were determined.

Assay [2] deals with velvetleaf. Described as above. It is filed as in vivo, Abutilon theophrasti. As to conditions: examined 16 days after application, index 0-10. On the procedure:
as §1

Assay [3] relates to barnyardgrass. The assay is described as above. The following applies: examined 16 days after application, index 0-10. It is filed as in vivo, Echinochloa crus-galli. The procedure: as §1
The test system of assay [4] is ivyleaf morningglory. The experiment in a line: Test Example 4: soil surface treatment on upland field (Table 5). Type of assay: in vivo, Ipomoea hederacea. The following applies: 500 g/ha active ingredient, examined 12 days after application, index 0-10. An excerpt: (§2) In the examples, the compounds are identified by the Compound Numbers as in Tables 1 to 3. […] A cylindrical plastic pot having a diameter of 10 cm and a depth of 10 cm was filled with soil and seeded ivyleaf morningglory, velvetleaf and barnyardgrass. Then each of compounds listed below was formulated into an emulsifiable concentrate according to Formulation Example 2 and then diluted to the prescribed amount with water and dilution was uniformly sprayed over the surface of the soil with sprayer at the rate of 1000 liters per hectare. After the application, the test plants were grown in a greenhouse for 12 days, and the herbicidal activity was examined.

Assay [5] has as its system velvetleaf. The assay is described as above. Type of assay: in vivo, Abutilon theophrasti. As to conditions: 500 g/ha active ingredient, examined 12 days after application, index 0-10.
Text: as §2

In assay [6] the test system is barnyardgrass. The assay is described as above. It is filed as in vivo, Echinochloa crus-galli. As to conditions: 500 g/ha active ingredient, examined 12 days after application, index 0-10.
Text: as §2

Assay [7] deals with large crabgrass. The experiment in a line: Test Example 5: foliar treatment on upland field (Table 6). Type of assay: in vivo, Digitaria sanguinalis. The following applies: 125 g/ha, 19 days after application, index 0 to 10. On the procedure: In the examples, the compounds are identified by the Compound Numbers as in Tables 1 to 3. […] A pot for plug seedlings seeded with large crabgrass. The test plant was grown in a greenhouse for 14 days, then transplanted into a plastic pot having an area of 17×12 cm^2 and a depth of 7 cm, and further the test plants were grown in the greenhouse for 8 days. Then each of compounds listed below was formulated into an emulsifiable concentrate according to Formulation Example 2 and then diluted to the prescribed amount with water containing a spreading agent and the dilution was uniformly sprayed over the foliage of the test plants with sprayer at a rate of 1000 liters per hectare. After the application, the test plants were grown in the greenhouse for 19 days, and the herbicidal activity were determined.

Consider `COC(=O)C(C)Oc1c(OC)cc(COc2cc(-n3c(=O)cc(C(F)(F)F)n(C)c3=O)c(F)cc2Cl)cc1OC` (stereo not shown) [Compound 1-238, Methyl 2-[4-({2-chloro-4-fluoro-5-[3-methyl-2,6-dioxo-4-(trifluoromethyl)-1,2,3,6-tetrahydropyrimidine-1-yl]phenoxy}methyl)-2,6-dimethoxyphenoxy]propionate], for which the “Herbicidal effect Ivyleaf morningglory” value in assay [1] (125 g/ha active ingredient) and in assay [4] was 10 throughout. For the same compound, the “Herbicidal effect Velvetleaf” value in assay [2] (125 g/ha active ingredient) and in assay [5] was 10 throughout. In addition, the “Herbicidal effect Barnyardgrass” value in assay [3] (125 g/ha active ingredient) worked out at 9; in assay [6], 8. Further, the “Herbicidal effect Large crabgrass” value in assay [7] was found to be 10.
Turning to `COC(=O)C(C)Oc1cc(COc2cc(-n3c(=O)cc(C(F)(F)F)n(C)c3=O)c(F)cc2Cl)ccc1C` (stereo not shown) [Compound 2-101, Methyl 2-[5-({2-chloro-4-fluoro-5-[3-methyl-2,6-dioxo-4-(trifluoromethyl)-1,2,3,6-tetrahydropyrimidine-1-yl]phenoxy}methyl)-2-methylphenoxy]propionate], the “Herbicidal effect Ivyleaf morningglory” value in assay [1] (125 g/ha active ingredient) and in assay [4] was 10 each time. In addition, the “Herbicidal effect Velvetleaf” value in assay [2] (125 g/ha active ingredient) and in assay [5] was 10 in each case. Moreover, the “Herbicidal effect Barnyardgrass” value in assay [3] (125 g/ha active ingredient) and in assay [6] was 10 throughout. Moreover, in assay [7], the “Herbicidal effect Large crabgrass” value amounted to 10.
Take `COC(=O)C(C)Oc1cccc(C(C)Oc2cc(-n3c(=O)cc(C(F)(F)F)n(C)c3=O)c(F)cc2Cl)c1` (stereo not shown) [Compound 2-21, methyl 2-[3-(1-{2-chloro-4-fluoro-5-[3-methyl-2,6-dioxo-4-(trifluoromethyl)-1,2,3,6-tetrahydropyrimidine-1-yl]phenoxy}ethyl)phenoxy]propionate]: the “Herbicidal effect Ivyleaf morningglory” value in assay [1] (32 g/ha active ingredient) and in assay [4] was 10 each time. For the same compound, the “Herbicidal effect Velvetleaf” value in assay [2] (32 g/ha active ingredient) and in assay [5] was 10 throughout. Further, the “Herbicidal effect Barnyardgrass” value in assay [3] (32 g/ha active ingredient) and in assay [6] was 10 throughout. Moreover, in assay [7], the “Herbicidal effect Large crabgrass” value is on record as 10.
Take `COC(=O)COc1cccc(COc2cc(-n3c(=O)cc(C(F)(F)F)n(C)c3=O)c(F)cc2Cl)c1` [Compound 2-11, Methyl 2-[3-({2-chloro-4-fluoro-5-[3-methyl-2,6-dioxo-4-(trifluoromethyl)-1,2,3,6-tetrahydropyrimidine-1-yl]phenoxy}methyl)phenoxy]acetate]: the “Herbicidal effect Ivyleaf morningglory” value in assay [1] (125 g/ha active ingredient) and in assay [4] was 10 throughout. Also, the “Herbicidal effect Velvetleaf” value in assay [2] (125 g/ha active ingredient) and in assay [5] was 10 throughout. Further, the entries for the “Herbicidal effect Barnyardgrass” value in assay [3] (125 g/ha active ingredient) and in assay [6] were 8 and 9, respectively. The “Herbicidal effect Large crabgrass” value in assay [7] was 10.
In the case of `COC(=O)C(C)Oc1ccc(COc2cc(-n3c(=O)cc(C(F)(F)F)n(C)c3=O)c(F)cc2Cl)cc1OC` (stereo not shown) [Compound 1-61, Methyl 2-[4-({2-chloro-4-fluoro-5-[3-methyl-2,6-dioxo-4-(trifluoromethyl)-1,2,3,6-tetrahydropyrimidine-1-yl]phenoxy}methyl)-2-methoxyphenoxy]propionate], the “Herbicidal effect Ivyleaf morningglory” value in assay [1] (125 g/ha active ingredient) and in assay [4] was 10 each time. Moreover, the “Herbicidal effect Velvetleaf” value in assay [2] (125 g/ha active ingredient) and in assay [5] was 10 each time. In addition, the “Herbicidal effect Barnyardgrass” value in assay [3] (125 g/ha active ingredient) and in assay [6] was 10 in each case. In addition, in assay [7], the “Herbicidal effect Large crabgrass” value was found to be 10.
With `CCOC(=O)C(C)Oc1ccc(COc2cc(-n3c(=O)cc(C(F)(F)F)n(C)c3=O)c(F)cc2Cl)cc1Cl` (stereo not shown) [Compound 1-42, Ethyl 2-[2-chloro-4-({2-chloro-4-fluoro-5-[3-methyl-2,6-dioxo-4-(trifluoromethyl)-1,2,3,6-tetrahydropyrimidine-1-yl]phenoxy}methyl)phenoxy]propionate], the “Herbicidal effect Ivyleaf morningglory” value in assay [1] (125 g/ha active ingredient) and in assay [4] was 10 each time. In addition, the “Herbicidal effect Velvetleaf” value in assay [2] (125 g/ha active ingredient) and in assay [5] was 10 throughout. The “Herbicidal effect Barnyardgrass” value in assay [3] (125 g/ha active ingredient) amounted to 10; in assay [6] it was 8. Also, the “Herbicidal effect Large crabgrass” value in assay [7] came out at 10.
As for `COC(=O)C(C)Oc1ccc(COc2cc(-n3c(=O)cc(C(F)(F)F)n(C)c3=O)c(F)cc2Cl)c(F)c1` (stereo not shown) [Compound 1-242, Methyl 2-[4-({2-chloro-4-fluoro-5-[3-methyl-2,6-dioxo-4-(trifluoromethyl)-1,2,3,6-tetrahydropyrimidine-1-yl]phenoxy}methyl)-3-fluorophenoxy]propionate], the “Herbicidal effect Ivyleaf morningglory” value in assay [1] (125 g/ha active ingredient) and in assay [4] was 10 throughout. Further, the “Herbicidal effect Velvetleaf” value in assay [2] (125 g/ha active ingredient) and in assay [5] was 10 in each case. Also, the “Herbicidal effect Barnyardgrass” value in assay [3] (125 g/ha active ingredient) and in assay [6] was 10 in each case. Also, in assay [7], the “Herbicidal effect Large crabgrass” value worked out at 10.
With `CCC(Oc1cc(-n2c(=O)cc(C(F)(F)F)n(C)c2=O)c(F)cc1Cl)c1ccc(OC(C)C(=O)OC)cc1` (stereo not shown) [Compound 1-213, Methyl 2-[4-(1-{2-chloro-4-fluoro-5-[3-methyl-2,6-dioxo-4-(trifluoromethyl)-1,2,3,6-tetrahydropyrimidine-1-yl]phenoxy}propyl)phenoxy]propionate], the “Herbicidal effect Ivyleaf morningglory” value in assay [1] (125 g/ha active ingredient) and in assay [4] was 10 each time. In addition, the “Herbicidal effect Velvetleaf” value in assay [2] (125 g/ha active ingredient) and in assay [5] was 10 throughout. Moreover, the “Herbicidal effect Barnyardgrass” value in assay [3] (125 g/ha active ingredient) and in assay [6] was 10 each time. Besides, the “Herbicidal effect Large crabgrass” value in assay [7] turned out to be 10.
As to `COC(=O)C(C)Oc1cc(COc2cc(-n3c(=O)cc(C(F)(F)F)n(C)c3=O)c(F)cc2Cl)ccc1Cl` (stereo not shown) [Compound 2-41, Methyl 2-[2-chloro-5-({2-chloro-4-fluoro-5-[3-methyl-2,6-dioxo-4-(trifluoromethyl)-1,2,3,6-tetrahydropyrimidine-1-yl]phenoxy}methyl)phenoxy]propionate], the “Herbicidal effect Ivyleaf morningglory” value in assay [1] (125 g/ha active ingredient) and in assay [4] was 10 each time. Further, the “Herbicidal effect Velvetleaf” value in assay [2] (125 g/ha active ingredient) and in assay [5] was 10 in each case. Further, the “Herbicidal effect Barnyardgrass” value in assay [3] (125 g/ha active ingredient) and in assay [6] was 10 throughout. Further, the “Herbicidal effect Large crabgrass” value in assay [7] worked out at 10.
Turning to `COC(=O)C(C)Oc1ccc(Cl)c(COc2cc(-n3c(=O)cc(C(F)(F)F)n(C)c3=O)c(F)cc2Cl)c1Cl` (stereo not shown) [Compound 2-161, Methyl 2-[2,4-dichloro-3-({2-chloro-4-fluoro-5-[3-methyl-2,6-dioxo-4-(trifluoromethyl)-1,2,3,6-tetrahydropyrimidine-1-yl]phenoxy}methyl)phenoxy]propionate], the “Herbicidal effect Ivyleaf morningglory” value in assay [1] (125 g/ha active ingredient) is recorded as 10; in assay [4] it was 6. In addition, the “Herbicidal effect Velvetleaf” value in assay [2] (125 g/ha active ingredient) and in assay [5] was 10 each time. For the same compound, the “Herbicidal effect Barnyardgrass” value is reported as 10 in assay [3] (125 g/ha active ingredient) and 5 in assay [6]. In addition, the “Herbicidal effect Large crabgrass” value in assay [7] worked out at 10.
